pKi: −log10 of the molar value.

The target in this test is T1, recombinant human NK3 receptor (Homo sapiens, UniProt P29371).
T1 construct: expressed in transfected cells; host or cells: HEK293 cells (transient expression), membranes
T1 sequence (P29371 1-465): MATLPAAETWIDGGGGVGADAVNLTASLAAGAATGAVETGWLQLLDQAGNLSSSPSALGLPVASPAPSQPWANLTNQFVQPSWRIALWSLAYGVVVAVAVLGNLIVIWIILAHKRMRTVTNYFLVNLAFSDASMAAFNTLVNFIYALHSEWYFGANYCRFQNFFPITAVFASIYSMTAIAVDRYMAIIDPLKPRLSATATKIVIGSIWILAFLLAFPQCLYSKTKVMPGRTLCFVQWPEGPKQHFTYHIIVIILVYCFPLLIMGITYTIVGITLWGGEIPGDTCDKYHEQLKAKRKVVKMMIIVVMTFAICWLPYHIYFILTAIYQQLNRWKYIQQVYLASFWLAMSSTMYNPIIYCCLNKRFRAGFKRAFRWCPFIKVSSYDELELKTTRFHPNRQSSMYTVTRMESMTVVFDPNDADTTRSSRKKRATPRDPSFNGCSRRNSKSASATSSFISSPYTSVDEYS
In words: [3H]SR142801 competition binding assay. Particulars: hNK3 receptor, membranes from HEK293 cells transiently expressing the receptor, [3H]SR142801 radioligand. As to the method:
[^3H]SR142801 Competition Binding Assay
hNK3 receptor binding experiment were performed using [^3H]SR142801 (Catalog No. TRK1035, specific activity: 74.0 Ci/mmol, Amersham, GE Healthcare UK limited, Buckinghamshire, UK) and membrane isolated from HEK293 cells transiently expressing recombinant human NK3 receptor. After thawing, the membrane homogenates were centrifuged at 48,000×g for 10 min at 4° C., the pellets were resuspended in the 50 mM Tris-HCl, 4 mM MnCl2, 1 μM phosphoramidon, 0.1% BSA binding buffer at pH 7.4 to a final assay concentration of 5 μg protein/well. For inhibition experiments, membranes were incubated with [^3H]SR142801 at a concentration equal to KD value of radioligand and 10 concentrations of the inhibitory compound (0.0003-10 μM) (in a total reaction volume of 500 μl) for 75 min at room temperature (RT). At the end of the incubation, membranes were filtered onto unitfilter (96-well white microplate with bonded GF/C filter preincubated 1 h in 0.3% PEI+0.3% BSA, Packard BioScience, Meriden, Conn.) with a Filtermate 196 harvester (Packard BioScience) and washed 4 times with ice-cold 50 mM Tris-HCl, pH 7.4 buffer. Nonspecific binding was measured in the presence of 10 μM SB222200 for both radioligands. The radioactivity on the filter was counted (5 min) on a Packard Top-count microplate scintillation counter with quenching correction after addition of 45 μl of microscint 40 (Can berra Packard S. A., Zürich, Switzerland) and shaking for 1 h. Inhibition curves were fitted according to the Hill equation: […]), where nH=slope factor using Excel-fit 4 software (Microsoft). IC50 values were derived from the inhibition curve and the affinity constant (Ki) values were calculated using the Cheng-Prussoff equation Ki=IC50/(1+[L]/KD) where [L] is the concentration of radioligand and KD is its dissociation constant at the receptor, derived from the saturation isotherm. All experiments were performed in duplicate and the mean±standard error (SEM) of the individual Ki values was calculated.

In the case of `C[C@H](Oc1ccc(Cl)cn1)[C@H]1CN(C(=O)C2CCN(c3ccc(C#N)cn3)CC2)C[C@@H]1c1ccc(Cl)cc1` [Example 1, 4-{(3S,4R)-3-(4-Chloro-phenyl)-4-[1-((S)-5-chloro-pyridin-2-yloxy)-ethyl]-pyrrolidine-1-carbonyl}-3,4,5,6-tetrahydro-2H-[1,2′]bipyridinyl-5′-carbonitrile], the pKi – broadly, the Ki on a negative log10 scale, so that one unit is a factor of ten – is 9.40.

For `C[C@H](Oc1ccc(Cl)cn1)[C@H]1CN(C(=O)C2CCN(c3cnccn3)CC2)C[C@@H]1c1ccc(Cl)cc1` [Example 2, {(3S,4R)-3-(4-Chloro-phenyl)-4-[1-((S)-5-chloro-pyridin-2-yloxy)-ethyl]-pyrrolidin-1-yl}-(1-pyrazin-2-yl-piperidin-4-yl)-methanone], the pKi is 8.72.

As to `C[C@H](Oc1ccc(Cl)cn1)[C@H]1CN(C(=O)C2CCN(c3ncccn3)CC2)C[C@@H]1c1ccc(Cl)cc1` [Example 3, {(3S,4R)-3-(4-Chloro-phenyl)-4-[1-((S)-5-chloro-pyridin-2-yloxy)-ethyl]-pyrrolidin-1-yl}-(1-pyrimidin-2-yl-piperidin-4-yl)-methanone], the pKi was 8.68.

With `C[C@H](Oc1ccc(Cl)cn1)[C@H]1CN(C(=O)C2CCN(c3ccc(C(F)(F)F)cn3)CC2)C[C@@H]1c1ccc(Cl)cc1` [Example 4, {(3S,4R)-3-(4-Chloro-phenyl)-4-[1-((S)-5-chloro-pyridin-2-yloxy)-ethyl]-pyrrolidin-1-yl}-(5′-trifluoromethyl-3,4,5,6-tetrahydro-2H-[1,2′]bipyridinyl-4-yl)-methanone], the pKi was 9.10.

`CC(=O)c1ccc(N2CCC(C(=O)N3C[C@H]([C@H](C)Oc4ccc(Cl)cn4)[C@@H](c4ccc(Cl)cc4)C3)CC2)cc1` [Example 5, 1-[4-(4-{(3S,4R)-3-(4-Chloro-phenyl)-4-[1-((S)-5-chloro-pyridin-2-yloxy)-ethyl]-pyrrolidine-1-carbonyl}-piperidin-1-yl)-phenyl]-ethanone]: the negative-log Ki (pKi) was 9.40.

As for `C[C@H](Oc1ccc(Cl)cn1)[C@H]1CN(C(=O)C2CCN(c3ccc(C#N)nn3)CC2)C[C@@H]1c1ccc(Cl)cc1` [Example 6, 6-(4-{(3S,4R)-3-(4-Chloro-phenyl)-4-[1-((S)-5-chloro-pyridin-2-yloxy)-ethyl]-pyrrolidine-1-carbonyl}-piperidin-1-yl)-pyridazine-3-carbonitrile], the negative-log Ki (pKi) is 9.30.

Regarding `C[C@H](Oc1ccc(F)cn1)[C@H]1CN(C(=O)C2CCN(c3ccc(C#N)cn3)CC2)C[C@@H]1c1ccc(Cl)cc1` [Example 7, 4-{(3S,4R)-3-(4-Chloro-phenyl)-4-[1-((S)-5-fluoro-pyridin-2-yloxy)-ethyl]-pyrrolidine-1-carbonyl}-3,4,5,6-tetrahydro-2H-[1,2′]bipyridinyl-5′-carbonitrile], the pKi was 8.92.

Take `C[C@H](Oc1ccc(Cl)cn1)[C@H]1CN(C(=O)C2CCN(c3ccncn3)CC2)C[C@@H]1c1ccc(Cl)cc1` [Example 8, {(3S,4R)-3-(4-Chloro-phenyl)-4-[1-((S)-5-chloro-pyridin-2-yloxy)-ethyl]pyrrolidin-1-yl}-(1-pyrimidin-4-yl-piperidin-4-yl)-methanone]: the negative logarithm of the Ki (pKi) is 8.89.

In the case of `CC(=O)c1ccc(N2CCC(C(=O)N3C[C@H]([C@H](C)Oc4ccc(Cl)cn4)[C@@H](c4ccc(Cl)cc4)C3)CC2)nc1` [Example 9, 1-(4-{(3S,4R)-3-(4-Chloro-phenyl)-4-[1-((S)-5-chloro-pyridin-2-yloxy)-ethyl]-pyrrolidine-1-carbonyl}-3,4,5,6-tetrahydro-2H-[1,2′]bipyridinyl-5′-yl)-ethanone], the pKi is 9.30.

Turning to `C[C@H](Oc1ccc(Cl)cn1)[C@H]1CN(C(=O)C2CCN(c3ncccc3C#N)CC2)C[C@@H]1c1ccc(Cl)cc1` [Example 10, 4-{(3S,4R)-3-(4-Chloro-phenyl)-4-[1-((S)-5-chloro-pyridin-2-yloxy)-ethyl]-pyrrolidine-1-carbonyl}-3,4,5,6-tetrahydro-2H-[1,2′]bipyridinyl-3′-carbonitrile], the pKi was 8.21.

Regarding `C[C@H](Oc1ccc(Cl)cn1)[C@H]1CN(C(=O)C2CCN(c3cc(C#N)ccn3)CC2)C[C@@H]1c1ccc(Cl)cc1` [Example 11, 4-{(3S,4R)-3-(4-Chloro-phenyl)-4-[1-((S)-5-chloro-pyridin-2-yloxy)-ethyl]-pyrrolidine-1-carbonyl}-3,4,5,6-tetrahydro-2H-[1,2′]bipyridinyl-4′-carbonitrile], the pKi was 9.30.

Take `Cc1ccc(N2CCC(C(=O)N3C[C@H]([C@H](C)Oc4ccc(F)cn4)[C@@H](c4ccc(Cl)cc4)C3)CC2)nn1` [Example 12, {(3S,4R)-3-(4-Chloro-phenyl)-4-[1-((S)-5-fluoro-pyridin-2-yloxy)-ethyl]-pyrrolidin-1-yl}-[1-(6-methyl-pyridazin-3-yl)-piperidin-4-yl]-methanone]: the pKi was 8.68.

Consider `COc1ccc(N2CCC(C(=O)N3C[C@H]([C@H](C)Oc4ccc(Cl)cn4)[C@@H](c4ccc(Cl)cc4)C3)CC2)nc1` [Example 13, {(3S,4R)-3-(4-Chloro-phenyl)-4-[1-((S)-5-chloro-pyridin-2-yloxy)-ethyl]-pyrrolidin-1-yl}-(5′-methoxy-3,4,5,6-tetrahydro-2H-[1,2′]bipyridinyl-4-yl)-methanone], for which the negative-log Ki (pKi) is 9.15.

Consider `COc1ccc(N2CCC(C(=O)N3C[C@H]([C@H](C)Oc4ccc(Cl)cn4)[C@@H](c4ccc(Cl)cc4)C3)CC2)nn1` [Example 14, {(3S,4R)-3-(4-Chloro-phenyl)-4-[1-((S)-5-chloro-pyridin-2-yloxy)-ethyl]-pyrrolidin-1-yl}-[1-(6-methoxy-pyridazin-3-yl)-piperidin-4-yl]-methanone], for which the negative logarithm of the Ki (pKi) was 8.92.

Turning to `COc1ccc(N2CCC(C(=O)N3C[C@H]([C@H](C)Oc4ccc(Cl)cn4)[C@@H](c4ccc(Cl)cc4)C3)CC2)cn1` [Example 15, {(3S,4R)-3-(4-Chloro-phenyl)-4-[1-((S)-5-chloro-pyridin-2-yloxy)-ethyl]-pyrrolidin-1-yl}-(6′-methoxy-3,4,5,6-tetrahydro-2H-[1,3,′]bipyridinyl-4-yl)-methanone], the pKi was 9.30.

On to `C[C@H](Oc1ccc(F)cn1)[C@H]1CN(C(=O)C2CCN(c3ccc(C#N)nn3)CC2)C[C@@H]1c1ccc(Cl)cc1` [Example 16, 6-(4-{(3S,4R)-3-(4-Chloro-phenyl)-4-[1-((S)-5-fluoro-pyridin-2-yloxy)-ethyl]-pyrrolidine-1-carbonyl}-piperidin-1-yl)-pyridazine-3-carbonitrile], for which the negative-log Ki (pKi) is 9.10.

With `C[C@H](Oc1ccc(Cl)cn1)[C@H]1CN(C(=O)C2CCN(c3cccc(C#N)n3)CC2)C[C@@H]1c1ccc(Cl)cc1` [Example 17, 4-{(3S,4R)-3-(4-Chloro-phenyl)-4-[1-((S)-5-chloro-pyridin-2-yloxy)-ethyl]-pyrrolidine-1-carbonyl}-3,4,5,6-tetrahydro-2H-[1,2′]bipyridinyl-6′-carbonitrile], the negative logarithm of the Ki (pKi) was 8.82.

Consider `Cc1nnc(N2CCC(C(=O)N3C[C@H]([C@H](C)Oc4ccc(Cl)cn4)[C@@H](c4ccc(Cl)cc4)C3)CC2)o1` [Example 18, {(3S,4R)-3-(4-Chloro-phenyl)-4-[1-((S)-5-chloro-pyridin-2-yloxy)-ethyl]-pyrrolidin-1-yl}-[1-(5-methyl-[1,3,4]oxadiazol-2-yl)-piperidin-4-yl]-methanone], for which the pKi was 8.51.

For `C[C@H](Oc1ccc(C#N)cn1)[C@H]1CN(C(=O)C2CCN(c3ccc(C#N)cn3)CC2)C[C@@H]1c1ccc(F)c(F)c1` [Example 19, 4-[(3R,48)-3-[1-((S)-5-Cyano-pyridin-2-yloxy)-ethyl]-4-(3,4-difluoro-phenyl)-pyrrolidine-1-carbonyl]-3,4,5,6-tetrahydro-2H-[1,2′]bipyridinyl-5′-carbonitrile], the negative-log Ki (pKi) was 8.92.

For `C[C@H](Oc1ccc(Cl)cn1)[C@H]1CN(C(=O)C2CCN(c3ccc(C#N)cn3)CC2)C[C@@H]1c1ccc(F)c(F)c1` [Example 20, 4-[(3R,4S)-3-[1-((S)-5-Chloro-pyridin-2-yloxy)-ethyl]-4-(3,4-difluoro-phenyl)-pyrrolidine-1-carbonyl]-3,4,5,6-tetrahydro-2H-[1,2′]bipyridinyl-5′-carbonitrile], the pKi is 9.05.

The record behind these values is patent US8394834B2, “Pyrrolidines as NK3 receptor antagonists” (Hoffman-La Roche Inc., priority 2009, dated 2013).
